Values of other authors, collected in patent publication US20090022789A1 (Supernus Pharmaceuticals, Inc., priority 2007, published 2009).

Settings: oral administration, IR form

For Nc1nnc(-c2cccc(Cl)c2Cl)c(N)n1 [lamotrigine, 3,5-diamino-6-(2,3-dichlorophenyl)-as-triazine], the first-pass metabolism is given as “negligible”.
